Drawing on ChEMBL document CHEMBL1148655, “Anti-angiogenic activity of basic-type, selective cyclooxygenase (COX)-1 inhibitors” (2006), this text covers Activity, inhibition and CC50 for 20 compounds.

The structures appear in SMILES notation. Active and inactive are the calls of the source. No cut-off for these calls is given here.

The test system of the first test is HUVEC. Put plainly: Antiangiogenic activity against HUVEC cells by tube formation assay at 100 uM.
Conditions: not given
The format is functional, Homo sapiens.
`Cc1cc(C)cc(N2CCc3cc(N)ccc32)c1` showed an Activity of 75%.

The same test, now with this note: Homo sapiens, HUVEC.
In the case of `CS(=O)(=O)c1ccc(-c2cc(Br)sc2-c2ccc(F)cc2)cc1` [DUP-697], testing at 100 µM gave an inhibition of 25%.

Turning to `Cc1cc(C)cc(C(=O)n2ccc3cc(N)ccc32)c1`, the inhibition (in general, the percentage by which the read-out fell short of the control) at 100 µM stood at 50%.

Compound `CC(C)Cc1ccc(C(C)C(=O)O)cc1` (stereo not drawn) [IBUPROFEN] registered an inhibition at 100 µM of 35%.

The test system of another test is HUVEC. Nature of the test: Cytotoxicity against HUVEC cell line. The format is functional. Particulars: Homo sapiens, read-out: LD50 (the source's name).
`Cc1cc(C)cc(C(=O)n2ccc3cc([N+](=O)[O-])ccc32)c1`: the CC50 was > 100 µM.

On to `O=C(c1cc(Cl)cc(Cl)c1)n1ccc2cc([N+](=O)[O-])ccc21`, for which the CC50 is > 100 µM.

`CC(C)(C)c1cc(C(=O)n2ccc3cc([N+](=O)[O-])ccc32)cc(C(C)(C)C)c1`: the CC50 was > 100 µM.

For `Nc1ccc2c(ccn2C(=O)c2cc(C(F)(F)F)cc(C(F)(F)F)c2)c1`, the CC50 is > 100 µM.

Consider `CC(C)(C)c1cc(C(=O)n2ccc3cc(N)ccc32)cc(C(C)(C)C)c1`, for which the CC50 is > 100 µM.

Consider `Nc1ccc2c(ccn2C(=O)c2cc(Cl)cc(Cl)c2)c1`, for which the CC50 was > 100 µM.

Take `CC(C)(C)c1cc(C(=O)N2CCc3cc(N)ccc32)cc(C(C)(C)C)c1`: the CC50 was > 100 µM.

Consider `O=C(c1cc(C(F)(F)F)cc(C(F)(F)F)c1)n1ccc2cc([N+](=O)[O-])ccc21`, for which the CC50 was > 100 µM.

With `Cc1cc(C)cc(C(=O)n2ccc3cc(N)ccc32)c1`, the CC50 is > 100 µM.

Take `Nc1ccc2c(c1)CCN2C(=O)c1cc(C(F)(F)F)cc(C(F)(F)F)c1`: the CC50 is > 100 µM.

For the compound `O=C(c1cc(C(F)(F)F)cc(C(F)(F)F)c1)N1CCc2cc([N+](=O)[O-])ccc21`, the CC50 is > 100 µM.

Turning to `Cc1cc(C)cc(C(=O)N2CCc3cc([N+](=O)[O-])ccc32)c1`, the CC50 is > 100 µM.

`Nc1ccc2c(c1)CCN2C(=O)c1cc(Cl)cc(Cl)c1`: the CC50 was > 100 µM.

For `CC(C)(C)c1cc(C(=O)N2CCc3cc([N+](=O)[O-])ccc32)cc(C(C)(C)C)c1`, the CC50 was > 100 µM.

As for `O=C(c1cc(Cl)cc(Cl)c1)N1CCc2cc([N+](=O)[O-])ccc21`, the CC50 was > 100 µM.

Consider `Cc1cc(C)cc(C(=O)N2CCc3cc(N)ccc32)c1`, for which the CC50 was > 100 µM.

For the next test, the target named is Prostaglandin G/H synthase 1 (Homo sapiens) (UniProt P23219). Particulars: at 30 µM.
Sequence of Prostaglandin G/H synthase 1 (Homo sapiens) (P23219 whole entry): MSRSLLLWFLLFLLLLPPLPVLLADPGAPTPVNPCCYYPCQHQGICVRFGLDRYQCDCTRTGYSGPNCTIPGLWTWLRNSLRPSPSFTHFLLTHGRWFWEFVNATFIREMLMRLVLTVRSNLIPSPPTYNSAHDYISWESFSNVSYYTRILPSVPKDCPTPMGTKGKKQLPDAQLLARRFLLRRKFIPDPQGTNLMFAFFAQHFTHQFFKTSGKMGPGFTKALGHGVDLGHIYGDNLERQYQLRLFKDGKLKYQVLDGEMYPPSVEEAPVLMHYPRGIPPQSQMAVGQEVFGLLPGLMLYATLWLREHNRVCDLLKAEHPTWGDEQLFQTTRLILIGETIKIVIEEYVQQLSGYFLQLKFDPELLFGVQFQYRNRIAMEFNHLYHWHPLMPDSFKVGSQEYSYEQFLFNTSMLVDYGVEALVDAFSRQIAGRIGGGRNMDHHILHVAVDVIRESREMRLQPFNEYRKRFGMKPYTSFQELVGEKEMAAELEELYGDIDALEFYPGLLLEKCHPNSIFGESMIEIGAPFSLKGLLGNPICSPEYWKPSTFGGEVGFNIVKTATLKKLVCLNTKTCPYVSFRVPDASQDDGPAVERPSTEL
Description: Inhibition of COX1 at 30 uM
Turning to `CS(=O)(=O)c1ccc(-c2cc(Br)sc2-c2ccc(F)cc2)cc1` [DUP-697], the inhibition entry was “inactive”.

In turn, `CC(=O)Oc1ccccc1C(=O)O` returned an inhibition of 21.9%.

Another test deals with T1, Prostaglandin G/H synthase 2 (Homo sapiens) (UniProt P35354).
T1 sequence (whole entry): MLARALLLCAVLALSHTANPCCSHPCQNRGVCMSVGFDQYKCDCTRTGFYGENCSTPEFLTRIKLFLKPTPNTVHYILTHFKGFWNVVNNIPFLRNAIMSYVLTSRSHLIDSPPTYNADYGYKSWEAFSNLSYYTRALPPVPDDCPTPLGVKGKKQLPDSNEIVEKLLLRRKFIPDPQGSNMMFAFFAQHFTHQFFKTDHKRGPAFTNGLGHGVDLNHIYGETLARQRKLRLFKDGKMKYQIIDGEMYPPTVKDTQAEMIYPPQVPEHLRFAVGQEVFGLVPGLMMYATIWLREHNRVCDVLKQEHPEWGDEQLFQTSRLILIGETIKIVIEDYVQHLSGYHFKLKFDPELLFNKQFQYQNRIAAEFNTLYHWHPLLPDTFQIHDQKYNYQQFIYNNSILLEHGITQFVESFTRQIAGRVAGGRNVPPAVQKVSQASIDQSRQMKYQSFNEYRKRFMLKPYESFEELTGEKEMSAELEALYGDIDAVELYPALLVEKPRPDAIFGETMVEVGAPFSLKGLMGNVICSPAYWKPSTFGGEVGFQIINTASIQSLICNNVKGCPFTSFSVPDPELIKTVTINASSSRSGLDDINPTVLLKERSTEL
The following applies: at 30 µM.
Description: Inhibition of COX2 at 30 uM
With `CC(=O)Oc1ccccc1C(=O)O`, the inhibition came out at 15.7%.
